Measurements: patent US6914045B2, “Glycopeptide antibiotics” (Wyeth Holdings Corporation, priority 2001, dated 2005)

Key:
Experiment in all cases: in vitro antibacterial evaluation, MIC by broth dilution
Format in all cases: cell-based
Conditions in all cases: broth dilution, 18 hours at 35° C.
Streptococcus sp. = system: Streptococcus sp.
Method: (§1) Methods for in vitro Antibacterial Evaluation (Table 1)
(§2) The minimum inhibitory concentration (MIC), the lowest concentration of the antibiotic which inhibits growth of the test organism, is determined by the broth dilution method using Muller-Hinton II […] (Baltimore Biological Laboratories) following the recommendations of the National Committee for Clinical Laboratory Standards [Methods for dilution antimicrobial susceptibility tests for bacteria that grow aerobically, approved standard M7-A2, National Committee for Clinical Laboratory Standards, Villanova, Pa.].
(§3) An inoculum level of 5×10^5 CFU/mL, and a range of antibiotic concentrations (64-0.06 μg/mL) is used. […] The test organisms include a spectrum of Gram-positive bacteria comprised of Staphylococcus sp., Streptococcus sp. and Enterococcus sp. These organisms include recent clinical isolates that are resistant to methicillin, penicillin and/or vancomycin.

Enterococcus sp. = system: Enterococcus sp.
Method: as §1, §2, §3

Staphylococcus sp. = system: Staphylococcus sp.
Method: as §1, §2, §3

Escherichia coli = system: Escherichia coli
Outline: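 Broth dilution in Muller-Hinton II medium per NCCLS standard M7-A2, with an inoculum of 5×10^5 CFU/mL and antibiotic tested over 64-0.06 μg/mL. MIC was taken as the lowest concentration inhibiting visible growth.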

CC(=O)Nc1cc(CC2NC(=O)C(C(C)c3ccccc3)NC(=O)CNC(=O)C(CO)NC(=O)C(C(O)C3CNC(=N)N3C3OC(CO)C(O)C(O)C3O)NC(=O)C(C(O)C3CNC(=N)N3)NC2=O)ccc1O (stereo not drawn) [Example 13, Cyclo[-glycyl-β-methylphenylalanyl-3-acetamidotyrosyl-3-(2-iminoimidazolidin-4-yl)seryl-3-(3-hexopyranosyl-2-iminoimidazolodin-4-yl)serylseryl]]
16 µg/mL: MIC Streptococcus agalactiae (GC 4564) (Streptococcus sp.; strain GC 4564)
>64 µg/mL: MIC Enterococcus faecalis (ATCC 29212) (Enterococcus sp.; strain ATCC 29212) | MIC Enterococcus faecalis (GC 2691) (Enterococcus sp.; strain GC 2691) | MIC Enterococcus faecalis (GC 3059) (Enterococcus sp.; strain GC 3059) | MIC Enterococcus faecalis (GC 4552) (Enterococcus sp.; strain GC 4552) | MIC Enterococcus faecalis (GC 4554) (Enterococcus sp.; strain GC 4554) | MIC Enterococcus faecalis (GC 6189) (Enterococcus sp.; strain GC 6189) | MIC Escherichia coli (ATCC 25922) (Escherichia coli; strain ATCC 25922) | MIC Escherichia coli (GC 4559) (Escherichia coli; strain GC 4559)
64 µg/mL: MIC Enterococcus faecalis (GC 2242) (Enterococcus sp.; strain GC 2242) | MIC Enterococcus faecium (GC 2243) (Enterococcus sp.; strain GC 2243) | MIC Enterococcus faecalis (GC 4553) (Enterococcus sp.; strain GC 4553) | MIC Enterococcus faecium (GC 4556) (Enterococcus sp.; strain GC 4556) | MIC Enterococcus faecium (GC 4557) (Enterococcus sp.; strain GC 4557) | MIC Enterococcus avium (GC 4558) (Enterococcus sp.; strain GC 4558) | MIC Staphylococcus aureus (ATCC 29213) (Staphylococcus sp.; strain ATCC 29213) | MIC Staphylococcus aureus (GC 1131) (Staphylococcus sp.; strain GC 1131) | MIC Staphylococcus aureus (GC 3051) (Staphylococcus sp.; strain GC 3051) | MIC Staphylococcus aureus (GC 3053) (Staphylococcus sp.; strain GC 3053) | MIC Staphylococcus aureus (GC 4541) (Staphylococcus sp.; strain GC 4541) | MIC Staphylococcus aureus (GC 4542) (Staphylococcus sp.; strain GC 4542) | MIC Staphylococcus aureus-SMITH (GC 4543) (Staphylococcus sp.; strain GC 4543) | MIC Staphylococcus aureus (GC 4544) (Staphylococcus sp.; strain GC 4544) | MIC Staphylococcus aureus (GC 4545) (Staphylococcus sp.; strain GC 4545) | MIC Staphylococcus haemolyticus (GC 4546) (Staphylococcus sp.; strain GC 4546) | MIC Coagulase Negative Staphylococcus (GC 4547) (Staphylococcus sp.; strain GC 4547) | MIC Coagulase Negative Staphylococcus (GC 4548) (Staphylococcus sp.; strain GC 4548) | MIC Coagulase Negative Staphylococcus (GC 4551) (Staphylococcus sp.; strain GC 4551)
32 µg/mL: MIC Coagulase Negative Staphylococcus (GC 4549) (Staphylococcus sp.; strain GC 4549) | MIC Coagulase Negative Staphylococcus (GC 6257) (Staphylococcus sp.; strain GC 6257) | MIC Escherichia coli (GC 4560) (Escherichia coli; strain GC 4560)
2 µg/mL: MIC Streptococcus pneumoniae (GC 1894) (Streptococcus sp.; strain GC 1894)
8 µg/mL: MIC Streptococcus pyogenes (GC 4563) (Streptococcus sp.; strain GC 4563)
4 µg/mL: MIC Streptococcus pneumoniae (ATCC 6301) (Streptococcus sp.; strain ATCC 6301) | MIC Streptococcus pneumoniae (GC 4565) (Streptococcus sp.; strain GC 4565)
